Assay results taken from patent US4177271A, “Hydroxy- and oxo-substituted α-benzylidenylcycloalkanes” (Unicler, priority 1977, dated 1979).

Experiments:
[1] = tested on: central nervous system; test: Activity on the central nervous system (overall conclusion); design: species or system mice; conditions: mouse, in vivo
From the text: (§1) This was investigated by observing the behaviour of the animal by studying the modification in hexobarbital-induced narcosis and antagonism vis-a-vis reserpine.

[2] = Acute toxicity (LD50), mice, intraperitoneal route, Log-Probits method of Miller and Tainter; assay type: in vivo; conditions: mouse, in vivo, ip
Protocol: (§2) The LD50 of the products was determined in mice by the intraperitoneal route according to the "Log-Probits" method of Miller and Tainter (Proc. Soc. Exptl. Biol. Med. 1944; 57, 261-264).

[3] = tested on: hexobarbital-induced narcosis; test: Modification (potentialisation) of hexobarbital-induced narcosis in mice; assay type: in vivo; conditions: Mus musculus, sodium hexobarbital 70 mg/kg IP half an hour later, read-out: Narcosis potentialisation, T (percentage increase in sleep time induced by hexobarbital); for change in vivo at 100 mg/kg: 100 mg/kg IP; for change in vivo at 200 mg/kg: 200 mg/kg IP; for change in vivo at 10 mg/kg: 10 mg/kg IP
Protocol: as §1
Mice, each weighing about 20 g, received intraperitoneally the product being investigated. Half an hour later sodium hexobarbital was injected by the same route at a dosage of 70 mg/kg.
The animals were placed on a hot plate maintained at a constant temperature of 27° C. Sleep is considered to have occurred as soon as a mouse, placed in the dorsal decubitus position, is incapable of turning over onto its paws.
The narcosis potentialisation is evaluated from the percentage increase in sleep time induced by hexobarbital (T).

[4] = tested on: blepharospasm produced by reserpine; test: Antagonism vis-a-vis reserpine (blepharospasm) in mice; assay type: in vivo, Swiss male mice; design: key: The inhibition of blepharospasm is recorded from 0 to +++; The inhibition of blepharospasm is recorded from 0 to +++; conditions: reserpine 5 mg/kg IP
Protocol: as §1
(Chen G., and Bohner B., (1961) J. pharmacol Exptl. Therap. 131, 179).
Reserpine when administered intraperitoneally to mice in a dosage of 5 mg/kg causes the eyelids to close more or less completely in the majority of animals. The administration of certain products will inhibit the blepharospasm produced by reserpine.
Swiss male mice are distributed into groups of 10 mice, and each experiment includes at least 3 groups:
a control group that receives only the solvent and reserpine
a group treated with a reference product (we chose Imipramine)
a treated group that receives the product being tested.
The products under investigation are administered intraperitoneally at 30 minutes or 2 hours before intraperitoneal injection of reserpine in a dosage of 5 mg/kg, so as to study their activity as a function of time.
The degree of ptosis for each eye and each animal is observed every 30 minutes for 4 to 5 hours, using RUBIN's score method. The activity of the product is determined by comparison with the result obtained with the treated control group. The inhibition of blepharospasm is recorded from 0 to +++.

[5] = tested on: mice; test: Acute toxicity (LD50), mice, intraperitoneal route, Log-Probits method of Miller and Tainter; assay type: in vivo
Protocol: as §2

Row | SMILES | LD50 [2] [mg/kg] | Blepharospasm (inhibition) ([4]; 200 mg/kg IP) | change in vivo at 200 mg/kg [3] [%] | further results
1 | CC1CCCC(=Cc2ccc3c(c2)OCO3)C1O (centres unmarked) [Code No. 1040, 2-(3,4-methylenedioxybenzylidene)-6-methylcyclohexanol or 2-piperonylidene-6-methylcyclohexanol] | 1000 | – | – | usefulness as an anti-depressant [1]: particularly useful as an anti-depressant; change in vivo at 100 mg/kg [3]: 174%
2 | CC1CCCC(=Cc2ccc3c(c2)OCO3)C1=O (centres unmarked) [compound 993] | 2000 | 0 | 385 | –
3 | CC1CCC(=O)C(=Cc2ccc3c(c2)OCO3)C1 (centres unmarked) [compound 994] | 2000 | 0 | 103 | –
4 | CC1CC(=Cc2ccc3c(c2)OCO3)C(=O)C(=Cc2ccc3c(c2)OCO3)C1 (centres unmarked) [compound 1059] | – | 0 | 0 | DL0 (IP) [5]: ≥ 2000 mg/kg
5 | COc1ccc(C=C2CCCC(C)C2=O)cc1OC (centres unmarked) [compound 1266] | 700 | – | – | Blepharospasm (inhibition) ([4]; 70 mg/kg IP): 0; change in vivo at 70 mg/kg ([3]; 70 mg/kg IP): 0%
6 | COc1ccc(C=C2CCCC(C)C2O)cc1OC (centres unmarked) [compound 1267] | 900 | – | – | –
7 | COc1cc(C=C2CCCC(C)C2=O)cc(OC)c1OC (centres unmarked) [compound 1268] | 1000 | – | – | change in vivo at 100 mg/kg [3]: 60%
8 | COc1cc(C=C2CCCC(C)C2O)cc(OC)c1OC (centres unmarked) [compound 1269] | 1100 | – | – | Blepharospasm (inhibition) ([4]; 110 mg/kg IP): 0; change in vivo at 110 mg/kg ([3]; 110 mg/kg IP): 66%
9 | COc1ccc(C=C2CCCC(C)C2=O)c(OC)c1OC (centres unmarked) [compound 1270] | 1000 | – | – | –
10 | COc1ccc(C=C2CCCC(C)C2O)c(OC)c1OC (centres unmarked) [compound 1271] | 500 | – | – | Blepharospasm (inhibition) ([4]; 50 mg/kg IP): 0; change in vivo at 50 mg/kg ([3]; 50 mg/kg IP): 0%
11 | CC1CCCC(=Cc2cc3c(cc2Cl)OCO3)C1=O (centres unmarked) [compound 1274] | – | – | 99 | DL0 (IP) [5]: ≥ 2000 mg/kg
12 | CC1CCCC(=Cc2cc3c(cc2Cl)OCO3)C1O (centres unmarked) [compound 1275] | 2000 | 0 | 56 | –
13 | O=C1C(=Cc2ccc3c(c2)OCO3)Cc2ccccc21 [compound 1292] | – | 0 | 62 | DL0 (IP) [5]: ≥ 2000 mg/kg
14 | O=C1C(=Cc2ccc3c(c2)OCO3)CCc2ccccc21 [compound 1293] | – | 0 | 30 | DL0 (IP) [5]: ≥ 2000 mg/kg
15 | OC1C(=Cc2ccc3c(c2)OCO3)Cc2ccccc21 (centres unmarked) [compound 1322] | 1500 | – | – | Blepharospasm (inhibition) ([4]; 150 mg/kg IP): 0; change in vivo at 150 mg/kg ([3]; 150 mg/kg IP): 116%
16 | CN1CC(=Cc2ccc3c(c2)OCO3)C(O)C(=Cc2ccc3c(c2)OCO3)C1 (centres unmarked) [compound 1324] | – | 0 | 83 | DL0 (IP) [5]: ≥ 2000 mg/kg
17 | OC1C(=Cc2ccc3c(c2)OCO3)CCCC1CN1CCOCC1 (centres unmarked) [compound 1347] | 1000 | – | – | change in vivo at 100 mg/kg [3]: 60%
18 | CN(C)CC1(C)CCCC(=Cc2ccc3c(c2)OCO3)C1O (centres unmarked) [compound 1349] | 100 | – | – | change in vivo at 10 mg/kg [3]: 10%
19 | CN1CCN(CC2(C)CCCC(=Cc3ccc4c(c3)OCO4)C2=O)CC1 (centres unmarked) [compound 1352] | 150 | – | – | Blepharospasm (inhibition) ([4]; 15 mg/kg IP): 0; change in vivo at 15 mg/kg ([3]; 15 mg/kg IP): 0%
20 | O=C1CCCC1=Cc1ccc2c(c1)OCO2 [compound 1386] | 1300 | – | – | Blepharospasm (inhibition) ([4]; 130 mg/kg IP): 0; change in vivo at 130 mg/kg ([3]; 130 mg/kg IP): 190%
21 | OC1CCCC1=Cc1ccc2c(c1)OCO2 (centres unmarked) [compound 1387] | 100 | – | – | Blepharospasm (inhibition) ([4]; 10 mg/kg IP): 0; change in vivo at 10 mg/kg [3]: 40%
22 | OC1C(=Cc2ccc3c(c2)OCO3)CCc2ccccc21 (centres unmarked) [compound 1388] | – | 0 | 10 | DL0 (IP) [5]: > 200 mg/kg
23 | CC1CCC(O)C(=Cc2ccc3c(c2)OCO3)C1 (centres unmarked) [compound 1446] | 1500 | – | – | –
